The subject of assay [1] is LTC4 production in MC/9 cells. The assay is described as follows: MC/9 HPLC assay, inhibition of LTC4 production. It counts as cell-based. Particulars: Mus musculus; for inhibition at 1 µM: MC9, Table 2 column 3, no concentration in head (1 μM according to b732), read-out: % Inhibition LTC4; for inhibition at 3 µM: MC9, 3 μM, A23187 stimulated. As to the method:
(§1) Cultured MC/9 cells (3×10^6 cells) in 1 mL HBSS were pre-incubated with a series of concentrations of compound solubilized in DMSO for 30 minutes. Production of leukotrienes were stimulated with the addition of 1 μM calcium ionophore (A23187), diluted from a 4 mM DMSO stock in HBSS, and incubated at room temperature for 20 minutes. The reaction was stopped with the addition of 500 μL of methanol containing 20 ng/mL prostaglandin B2 as an internal standard. Samples were collected and stored at −20° C. at least 2 hr or overnight before centrifuged at 13,000 rpm for 15 minutes and loaded onto C18 SEP-PAK columns (Canadian Lifesciences IS12000) for solid phase extraction. The leukotrienes were analyzed by HPLC using an ACE C18 column (4.5 mm×150 mm, 5 m) eluted with acetonitrile/methanol/water mixture with H3PO4, pH 3.5 (37:26:37) with a flow rate of 1.8 mL/min. The amount of LTB4 (Cayman Chemical, 20110) and LTC4 (Cayman Chemical, 20210) were calculated based on reference standards and the level of inhibition of LTB4 production induced by the test compounds was calculated relative to control samples. The results are provided in Table 2, where Compound No. refers to the compounds identified in Table 1.

The test system of assay [2] is LTB4 production in MC/9 cells. The experiment in a line: MC/9 HPLC assay, inhibition of LTB4 production. It counts as cell-based. Particulars: Mus musculus, MC9, Table 2 column 4, no concentration in head (1 μM according to b732), read-out: % Inhibition LTB4. As to the method: as §1
In assay [3] the target is T1, recombinant human leukotriene A4 hydrolase enzyme (Homo sapiens, UniProt P09960).
T1 construct: purchased Cayman Chemical 10007817
T1 sequence (P09960 1-611): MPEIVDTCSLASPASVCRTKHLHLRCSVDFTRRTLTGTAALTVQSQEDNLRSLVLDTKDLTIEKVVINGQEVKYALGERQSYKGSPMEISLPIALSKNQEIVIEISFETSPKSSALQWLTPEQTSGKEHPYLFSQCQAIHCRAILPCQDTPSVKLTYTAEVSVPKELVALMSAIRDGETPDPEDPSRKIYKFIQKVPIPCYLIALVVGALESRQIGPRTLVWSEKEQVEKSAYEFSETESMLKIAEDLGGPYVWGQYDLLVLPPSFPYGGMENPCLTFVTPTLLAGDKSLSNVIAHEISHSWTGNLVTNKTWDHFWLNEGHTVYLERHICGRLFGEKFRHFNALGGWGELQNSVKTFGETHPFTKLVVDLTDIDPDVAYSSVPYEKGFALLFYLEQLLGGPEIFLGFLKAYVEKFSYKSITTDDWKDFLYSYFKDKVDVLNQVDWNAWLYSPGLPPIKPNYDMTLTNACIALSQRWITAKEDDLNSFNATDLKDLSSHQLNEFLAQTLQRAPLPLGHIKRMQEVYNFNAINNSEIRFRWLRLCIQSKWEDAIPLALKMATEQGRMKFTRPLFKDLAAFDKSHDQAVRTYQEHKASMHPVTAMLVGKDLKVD
The experiment in a line: Amino-peptidase assay, alanine-4-nitroanalide. Particulars: negative values = augmented peptidase activity, read-out: % Inhibition aminopeptidase-Alanine-4-nitroanalide activity of LTA4H (3 μM). The format is biochemical. As to the method: A series of compound concentrations were pre-incubated in the absence of light with 0.5 μg of recombinant human leukotriene A4 hydrolase enzyme (Cayman Chemical 10007817) in 50 μL assay buffer (50 mM Tris-HCl, 100 mM KCl). The reaction was stimulated by adding 50 μL 6 mM alanine-4-nitroanilide (Sigma Aldrich A9325) in assay buffer. The amount of amino-peptidase activity was measured by determining the change in absorbance at 405 nm due to 4-nitroanaline production and comparing the rate of change to a reference standard (Sigma Aldrich 185310). Amino-peptidase activity was compared to control samples and the level of inhibition was calculated. Compounds that augment peptidase activity are represented by negative values.

Structures are written as SMILES.

As for `CCC(C)(O)CCc1ccc(Oc2nc3ccccc3s2)cc1` (centres unmarked) [Compound 143, 1-[4-(1,3-benzothiazol-2-yloxy)phenyl]-3-methylpentan-3-ol], the inhibition at 1 µM is 10 to 30% in assay [1] and greater than 90% in assay [2]. In the case of `COc1cc(CCC(O)(c2ccccc2)C(F)(F)F)ccc1Oc1nc2ccccc2s1` (centres unmarked) [Compound 133, 3-[4-(1,3-benzothiazol-2-yloxy)-3-methoxyphenyl]-1-(trifluoromethyl)-1-phenylpropan-1-ol], the inhibition at 1 µM in assay [1] is less than 10%; in assay [2], 30 to 50%. As to `CC(c1ccc(Oc2nc3ccccc3s2)cc1)N1CCCC1` (centres unmarked) [Compound 162, 2-{4-[1-(pyrrolidin-1-yl)ethyl]phenoxy}-1,3-benzothiazole], the inhibition at 3 µM in assay [1] is less than 10%.

`CCC(CCc1ccc(Oc2nc3ccccc3s2)c(OC)c1)N1CCOCC1` (centres unmarked) [Compound 136, 4-{1-[3-methoxy-4-(1,3-benzothiazol-2-yloxy)phenyl]pentan-3-yl}morpholine] had an inhibition at 3 µM in assay [1] of 10 to 30%. Same read-out and setting: in the case of `CCOc1cc(CCC(=O)CC)ccc1Oc1nc2ccccc2s1` [Compound 120, 1-[4-(1,3-benzothiazol-2-yloxy)-3-ethoxyphenyl]-pentan-3-one] it was 70 to 90%. On to `CC(O)(CCc1ccc(Oc2nc3ccccc3s2)c(Cl)c1)C(F)(F)F` (centres unmarked) [Compound 175, 4-[4-(1,3-benzothiazol-2-yloxy)-3-chlorophenyl]-1,1,1-trifluoro-2-methylbutan-2-ol], for which the inhibition at 3 µM in assay [3] was 50 to 75%. With `COc1cc(CCC(=O)c2ccccc2)ccc1Oc1nc2ccccc2s1` [Compound 131, 3-[4-(1,3-benzothiazol-2-yloxy)-3-methoxyphenyl]-1-phenylpropan-1-one], the inhibition at 3 µM in assay [1] is 50 to 70%.

The compound `CC(=O)c1ccc(Oc2nc3ccccc3s2)cc1` [Compound 159, 1-[4-(1,3-benzothiazol-2-yloxy)phenyl]ethanone] had an inhibition at 3 µM in assay [1] of 10 to 30%. `CC(C)(O)c1ccc(Oc2nc3ccccc3s2)cc1` [Compound 177, 2-[4-(1,3-benzothiazol-2-yloxy)phenyl]propan-2-ol]: in assay [3], the inhibition at 3 µM is greater than 75%. Take `CCC(C)(O)c1ccc(Oc2nc3ccccc3s2)cc1` (centres unmarked) [Compound 161, 2-[4-(1,3-benzothiazol-2-yloxy)phenyl]butan-2-ol]: the inhibition at 3 µM in assay [1] was less than 10%. Same read-out and setting: in the case of `CCC(O)CCc1ccc(Oc2nc3ccccc3s2)c(OC)c1` (centres unmarked) [Compound 196, 1-[4-(1,3-benzothiazol-2-yloxy)-3-methoxyphenyl]pentan-3-ol] it was greater than 90%. As for `CCC(C)(O)CCc1ccc(Oc2nc3ccccc3o2)c(OC)c1` (centres unmarked) [Compound 127, 1-[4-(1,3-benzoxazol-2-yloxy)-3-methoxyphenyl]-3-methylpentan-3-ol], the inhibition at 1 µM in assay [1] and in assay [2] was less than 10% in each case.

As for `Cc1nc2ccc(Oc3ccc(C(C)O)cc3)cc2s1` (centres unmarked) [Compound 171, 1-{4-[(2-methyl-1,3-benzothiazol-6-yl)oxy]phenyl}ethanol], the inhibition at 3 µM in assay [1] fell in the range of 70 to 90%. Consider `CCOc1cc(CCC(O)(c2ccccc2)C(F)(F)F)ccc1Oc1nc2ccccc2s1` (centres unmarked) [Compound 130, 4-[3-ethoxy-4-(1,3-benzothiazol-2-yloxy)phenyl]-1,1,1-trifluoro-2-phenylbutan-2-ol], for which the inhibition at 1 µM in assay [1] was less than 10%; in assay [2], 10 to 30%.

With `CCC(O)(CCc1ccc(Oc2nc3ccccc3s2)c(Cl)c1)C(F)(F)F` (centres unmarked) [Compound 151, 1-[4-(1,3-benzothiazol-2-yloxy)-3-chlorophenyl]-3-(trifluoromethyl)pentan-3-ol], the inhibition at 1 µM in assay [1] and in assay [2] was 10 to 30% in each case. `CCC(N)CCc1ccc(Oc2nc3ccccc3s2)c(OC)c1` (centres unmarked) [Compound 135, 1-[4-(1,3-benzothiazol-2-yloxy)-3-methoxyphenyl]pentan-3-amine]: the inhibition at 1 µM is 10 to 30% in assay [1] and 30 to 50% in assay [2]. On the same counts, the results for `CCC(=O)CCc1ccc(Oc2nc3ccccc3s2)c(OC)c1` [Compound 101, 1-[4-(1,3-benzothiazol-2-yloxy)-3-methoxyphenyl]pentan-3-one] are less than 10% and less than 10%. For `CC(=O)CCc1ccc(OCc2ccc3ccccc3n2)cc1` [Compound 189, 4-{4-[(quinolinyl-2-yl)methoxy]phenyl}butan-2-one], in assay [1], the inhibition at 3 µM fell in the range of 70 to 90%. On the same count and under the same terms, to `CCNC(c1ccc(Oc2nc3ccccc3s2)cc1)C(F)(F)F` (centres unmarked) [Compound 168, 1-[4-(1,3-benzothiazol-2-yloxy)phenyl]-N-ethyl-2,2,2-trifluoroethanamine] belongs less than 10%. As to `CCC(=O)CCc1ccc(Oc2nc3ccccc3s2)cc1` [Compound 148, 1-[4-(1,3-benzothiazol-2-yloxy)phenyl]pentan-3-one], the inhibition at 3 µM in assay [3] was less than 25%. For the compound `COc1cc(CCC(C)(C)O)ccc1Oc1nc2ccccc2s1` [Compound 124, 4-[4-(1,3-benzothiazol-2-yloxy)-3-methoxyphenyl]-2-methylbutan-2-ol], the inhibition at 1 µM in assay [1] lay in the range of 10 to 30%. In turn, `Cc1nc2ccc(Oc3ccc(C(C)(O)C(F)(F)F)cc3)cc2s1` (centres unmarked) [Compound 170, 1,1,1-trifluoro-2-{4-[(2-methyl-1,3-benzothiazol-6-yl)oxy]phenyl}propan-2-ol] showed an inhibition at 3 µM in assay [1] greater than 90%. On the same count and under the same terms, to `COc1cc(CCC(C)(O)C(F)(F)F)ccc1Oc1nc2ccccc2s1` (centres unmarked) [Compound 111, 4-[4-(1,3-benzothiazol-2-yloxy)-3-methoxyphenyl]-1,1,1-trifluoro-2-methylbutan-2-ol] belongs 70 to 90%. On to `CCC(O)(CCc1ccc(Oc2nc3ccccc3s2)c(OC2CCCC2)c1)C(F)(F)F` (centres unmarked) [Compound 116, 1-[4-(1,3-benzothiazol-2-yloxy)-3-(cyclopentyloxy)-phenyl]-3-(trifluoromethyl)-pentan-3-ol], for which the inhibition at 1 µM in assay [1] and in assay [2] was less than 10% throughout. Regarding `COc1cc(CCC(C)=O)ccc1Oc1nc2ccccc2s1` [Compound 110, 4-[4-(1,3-benzothiazol-2-yloxy)-3-methoxyphenyl]butan-2-one], the inhibition at 1 µM in assay [1] and in assay [2] was less than 10% each time. Regarding `CC(O)(CCc1ccc(Oc2nc3ccccc3s2)cc1)c1ccccc1` (centres unmarked) [Compound 144, 4-[4-(1,3-benzothiazol-2-yloxy)phenyl]-2-phenylbutan-2-ol], the inhibition at 1 µM in assay [1] is 10 to 30%; in assay [2], greater than 90%. On the same counts, the results for `COc1cc(CCC(C)O)ccc1Oc1nc2ccccc2s1` (centres unmarked) [Compound 122, 4-[4-(1,3-benzothiazol-2-yloxy)-3-methoxyphenyl]-butan-2-ol] are 30 to 50% and 30 to 50%. On the same counts, the results for `COc1cc(CCC(C)(C)O)ccc1Oc1nc2ccccc2o1` [Compound 126, 4-[4-(1,3-benzoxazol-2-yloxy)-3-methoxyphenyl]-2-methylbutan-2-ol] are less than 10% and 10 to 30%. On the same counts, the results for `COc1cc(CCC(c2ccccc2)N2CCCC2)ccc1Oc1nc2ccccc2s1` (centres unmarked) [Compound 134, 2-{2-methoxyl-4-[3-phenyl-3-(pyrrolidin-1-yl)propyl]phenoxy}-1,3-benzothiazole] are 10 to 30% and 10 to 30%. Consider `CC(O)(CCc1ccc(Oc2nc3ccccc3s2)cc1)C(F)(F)F` (centres unmarked) [Compound 140, 4-[4-(1,3-benzothiazol-2-yloxy)phenyl]-1,1,1-trifluoro-2-methylbutan-2-ol], for which the inhibition at 1 µM in assay [1] and in assay [2] was less than 10% throughout.
